According to patent US20230348376A1 (TEIJIN PHARMA LIMITED, priority 2020, published 2023):

Test system: rat oligodendrocyte progenitor cells
Experiment: Promotive activity of rat oligodendrocyte progenitor cell differentiation-2 (immunostaining of MBP)
Format: cell-based
Details: vitamin D derivative 2 μM, T3 30 nM, 4 days
Procedure: The promotive activity of oligodendrocyte progenitor cell (OPC) differentiation of the vitamin D derivatives was evaluated by immunostaining of MBP.
Subsequently, oligodendrocyte progenitor cell separation medium was added to the flask, and the mixture was similarly shaken for about 22 hours (37° C., 200 rpm), and the supernatant was collected to prepare oligodendrocyte progenitor cells.

SMILES: C=C1[C@H](O)CC(=C/C=C2\CCC[C@]3(C)[C@@H]([C@H](C)CN4CCCCC4(C)C)CC[C@@H]23)C[C@H]1O [Compound H003, (1R,3R)-5-(2-((1R,3aS,7aR,E)-1-((S)-1-(2,2-dimethylpiperidin-1-yl)propan-2-yl)-7a-methyloctahydro-4H-inden-4-ylidene)ethylidene)-2-methylenecyclohexane-1,3-diol]
- Mean (number of MBP-positive cells/number of Hoechst33342-positive cells) (Test 9): 0.30

SMILES: C=C1/C(=C\C=C2/CCC[C@]3(C)[C@@H]([C@H](C)CN4CCC[C@@H]4C(C)(C)OC)CC[C@@H]23)C[C@@H](O)C[C@@H]1O [Compound F015, (1R,3S,Z)-5-(2-((1R,3aS,7aR,E)-1-((S)-1-((R)-2-(2-methoxypropan-2-yl)pyrrolidin-1-yl)propan-2-yl)-7a-methyloctahydro-4H-inden-4-ylidene)ethylidene)-4-methylenecyclohexane-1,3-diol]
- Mean (number of MBP-positive cells/number of Hoechst33342-positive cells) (Test 8): 0.35

SMILES: C=C1[C@H](O)CC(=C/C=C2\CCC[C@]3(C)[C@@H]([C@H](C)CN4CCC[C@H]4C(C)(C)O)CC[C@@H]23)C[C@H]1O [Compound H014, (1R,3R)-5-(2-((1R,3aS,7aR,E)-1-((S)-1-((S)-2-(2-hydroxypropan-2-yl)pyrrolidin-1-yl)propan-2-yl)-7a-methyloctahydro-4H-inden-4-ylidene)ethylidene)-2-methylenecyclohexane-1,3-diol]
- Mean (number of MBP-positive cells/number of Hoechst33342-positive cells) (Test 8): 0.37

SMILES: C=C1/C(=C\C=C2/CCC[C@]3(C)[C@@H]([C@H](C)CN4CCOCC4(C)C)CC[C@@H]23)C[C@@H](O)C[C@H]1O [Compound I006, (1R,3R,Z)-5-(2-((1R,3aS,7aR,E)-1-((S)-1-(3,3-dimethylmorpholino)propan-2-yl)-7a-methyloctahydro-4H-inden-4-ylidene)ethylidene)-4-methylenecyclohexane-1,3-diol]
- Mean (number of MBP-positive cells/number of Hoechst33342-positive cells) (Test 4): 0.51

SMILES: C[C@H](CN1CCOCC12CC2)[C@H]1CC[C@H]2/C(=C/C=C3C[C@@H](O)C[C@H](O)C3)CCC[C@]12C [Compound G007, (1R,3R)-5-(2-((1R,3aS,7aR,E)-1-((S)-1-(7-oxa-4-azaspiro[2.5]octan-4-yl)propan-2-yl)-7a-methyloctahydro-4H-inden-4-ylidene)ethylidene)cyclohexane-1,3-diol]
- Mean (number of MBP-positive cells/number of Hoechst33342-positive cells) (Test 4): 0.34

SMILES: C[C@H](CN1CCN(C)C[C@@H]1C)[C@H]1CC[C@H]2/C(=C/C=C3C[C@@H](O)C[C@H](O)C3)CCC[C@]12C [Compound G011, (1R,3R)-5-(2-((1R,3aS,7aR,E)-1-((S)-1-((S)-2,4-dimethylpiperazin-1-yl)propan-2-yl)-7a-methyloctahydro-4H-inden-4-ylidene)ethylidene)cyclohexane-1,3-diol]
- Mean (number of MBP-positive cells/number of Hoechst33342-positive cells) (Test 5): 0.22

SMILES: C=C1/C(=C\C=C2/CCC[C@]3(C)[C@@H]([C@H](C)CN4CCC[C@H]4C(C)(C)O)CC[C@@H]23)C[C@@H](O)C[C@@H]1O [Compound F014, (1R,3S,Z)-5-(2-((1R,3aS,7aR,E)-1-((S)-1-((S)-2-(2-hydroxypropan-2-yl)pyrrolidin-1-yl)propan-2-yl)-7a-methyloctahydro-4H-inden-4-ylidene)ethylidene)-4-methylenecyclohexane-1,3-diol]
- Mean (number of MBP-positive cells/number of Hoechst33342-positive cells) (Test 8): 0.29

SMILES: C=C1[C@H](O)CC(=C/C=C2\CCC[C@]3(C)[C@@H]([C@H](C)CN4CCC[C@H]4C(C)(C)OC)CC[C@@H]23)C[C@H]1O [Compound H016, (1R,3R)-5-(2-((1R,3aS,7aR,E)-1-((S)-1-((S)-2-(2-methoxypropan-2-yl)pyrrolidin-1-yl)propan-2-yl)-7a-methyloctahydro-4H-inden-4-ylidene)ethylidene)-2-methylenecyclohexane-1,3-diol]
- Mean (number of MBP-positive cells/number of Hoechst33342-positive cells) (Test 8): 0.30

SMILES: C=C1/C(=C\C=C2/CCC[C@]3(C)[C@@H]([C@H](C)CN4CCOC[C@H]4C)CC[C@@H]23)C[C@@H](O)C[C@@H]1O [Compound F005, (1R,3S,Z)-5-(2-((1R,3aS,7aR,E)-7a-methyl-1-((S)-1-((R)-3-methylmorpholino)propan-2-yl)octahydro-4H-inden-4-ylidene)ethylidene)-4-methylenecyclohexane-1,3-diol]
- Mean (number of MBP-positive cells/number of Hoechst33342-positive cells) (Test 3): 0.40

SMILES: C=C1[C@H](O)CC(=C/C=C2\CCC[C@]3(C)[C@@H]([C@H](C)CN4CCC[C@@H]4C(C)(C)O)CC[C@@H]23)C[C@H]1O [Compound H013, (1R,3R)-5-(2-((1R,3aS,7aR,E)-1-((S)-1-((R)-2-(2-hydroxypropan-2-yl)pyrrolidin-1-yl)propan-2-yl)-7a-methyloctahydro-4H-inden-4-ylidene)ethylidene)-2-methylenecyclohexane-1,3-diol]
- Mean (number of MBP-positive cells/number of Hoechst33342-positive cells) (Test 8): 0.35

SMILES: C=C1/C(=C\C=C2/CCC[C@]3(C)[C@@H]([C@H](C)CN4CCCCC4(C)C)CC[C@@H]23)C[C@@H](O)C[C@H]1O [Compound I003, (1R,3R,Z)-5-(2-((1R,3aS,7aR,E)-1-((S)-1-(2,2-dimethylpiperidin-1-yl)propan-2-yl)-7a-methyloctahydro-4H-inden-4-ylidene)ethylidene)-4-methylenecyclohexane-1,3-diol]
- Mean (number of MBP-positive cells/number of Hoechst33342-positive cells) (Test 9): 0.33

SMILES: C[C@H](CN1CCC[C@H]1C(C)(C)O)[C@H]1CC[C@H]2/C(=C/C=C3C[C@@H](O)C[C@H](O)C3)CCC[C@]12C [Compound G014, (1R,3R)-5-(2-((1R,3aS,7aR,E)-1-((S)-1-((S)-2-(2-hydroxypropan-2-yl)pyrrolidin-1-yl)propan-2-yl)-7a-methyloctahydro-4H-inden-4-ylidene)ethylidene)cyclohexane-1,3-diol]
- Mean (number of MBP-positive cells/number of Hoechst33342-positive cells) (Test 6): 0.44

SMILES: C[C@H](CN1CCCC[C@H]1C)[C@H]1CC[C@H]2/C(=C/C=C3C[C@@H](O)C[C@H](O)C3)CCC[C@]12C [Compound G002, (1R,3R)-5-(2-((1R,3aS,7aR,E)-7a-methyl-1-((S)-1-((R)-2-methylpiperidin-1-yl)propan-2-yl)octahydro-4H-inden-4-ylidene)ethylidene)cyclohexane-1,3-diol]
- Mean (number of MBP-positive cells/number of Hoechst33342-positive cells) (Test 3): 0.33

SMILES: C=C1[C@H](O)CC(=C/C=C2\CCC[C@]3(C)[C@@H]([C@H](C)CN4CCCC[C@@H]4C)CC[C@@H]23)C[C@H]1O [Compound H001, (1R,3R)-5-(2-((1R,3aS,7aR,E)-7a-methyl-1-((S)-1-((S)-2-methylpiperidin-1-yl)propan-2-yl)octahydro-4H-inden-4-ylidene)ethylidene)-2-methylenecyclohexane-1,3-diol]
- Mean (number of MBP-positive cells/number of Hoechst33342-positive cells) (Test 7): 0.48

SMILES: C=C1[C@H](O)CC(=C/C=C2\CCC[C@]3(C)[C@@H]([C@H](C)CN4CCCC[C@H]4C)CC[C@@H]23)C[C@H]1O [Compound H002, (1R,3R)-5-(2-((1R,3aS,7aR,E)-7a-methyl-1-((S)-1-((R)-2-methylpiperidin-1-yl)propan-2-yl)octahydro-4H-inden-4-ylidene)ethylidene)-2-methylenecyclohexane-1,3-diol]
- Mean (number of MBP-positive cells/number of Hoechst33342-positive cells) (Test 9): 0.39

SMILES: C=C1[C@H](O)CC(=C/C=C2\CCC[C@]3(C)[C@@H]([C@H](C)CN4CCN(C)C[C@@H]4C)CC[C@@H]23)C[C@H]1O [Compound H011, (1R,3R)-5-(2-((1R,3aS,7aR,E)-1-((S)-1-((S)-2,4-dimethylpiperazin-1-yl)propan-2-yl)-7a-methyloctahydro-4H-inden-4-ylidene)ethylidene)-2-methylenecyclohexane-1,3-diol]
- Mean (number of MBP-positive cells/number of Hoechst33342-positive cells) (Test 5): 0.30

SMILES: C=C1/C(=C\C=C2/CCC[C@]3(C)[C@@H]([C@H](C)CN4CCCCC4(C)C)CC[C@@H]23)C[C@@H](O)C[C@@H]1O [Compound F003, (1R,3S,Z)-5-(2-((1R,3aS,7aR,E)-1-((S)-1-(2,2-dimethylpiperidin-1-yl)propan-2-yl)-7a-methyloctahydro-4H-inden-4-ylidene)ethylidene)-4-methylenecyclohexane-1,3-diol]
- Mean (number of MBP-positive cells/number of Hoechst33342-positive cells) (Test 7): 0.32

SMILES: C[C@H](CCN1CCCC[C@H]1C)[C@H]1CC[C@H]2/C(=C/C=C3C[C@@H](O)C[C@H](O)C3)CCC[C@]12C [Compound G018, (1R,3R)-5-(2-((1R,3aS,7aR,E)-7a-methyl-1-((R)-4-((R)-2-methylpiperidin-1-yl)butan-2-yl)octahydro-4H-inden-4-ylidene)ethylidene)cyclohexane-1,3-diol]
- Mean (number of MBP-positive cells/number of Hoechst33342-positive cells) (Test 6): 0.48

SMILES: C=C1/C(=C\C=C2/CCC[C@]3(C)[C@@H]([C@H](C)CN4CCCC[C@H]4C)CC[C@@H]23)C[C@@H](O)C[C@H]1O [Compound I002, (1R,3R,Z)-5-(2-((1R,3aS,7aR,E)-7a-methyl-1-((S)-1-((R)-2-methylpiperidin-1-yl)propan-2-yl)octahydro-4H-inden-4-ylidene)ethylidene)-4-methylenecyclohexane-1,3-diol]
- Mean (number of MBP-positive cells/number of Hoechst33342-positive cells) (Test 9): 0.31

SMILES: C=C1/C(=C\C=C2/CCC[C@]3(C)[C@@H]([C@H](C)CN4CCN(C)C[C@H]4C)CC[C@@H]23)C[C@@H](O)C[C@@H]1O [Compound F012, (1R,3S,Z)-5-(2-((1R,3aS,7aR,E)-1-((S)-1-((R)-2,4-dimethylpiperazin-1-yl)propan-2-yl)-7a-methyloctahydro-4H-inden-4-ylidene)ethylidene)-4-methylenecyclohexane-1,3-diol]
- Mean (number of MBP-positive cells/number of Hoechst33342-positive cells) (Test 7): 0.23

SMILES: C[C@H](CN1CCC[C@@H]1C(C)(C)O)[C@H]1CC[C@H]2/C(=C/C=C3C[C@@H](O)C[C@H](O)C3)CCC[C@]12C [Compound G013, (1R,3R)-5-(2-((1R,3aS,7aR,E)-1-((S)-1-((R)-2-(2-hydroxypropan-2-yl)pyrrolidin-1-yl)propan-2-yl)-7a-methyloctahydro-4H-inden-4-ylidene)ethylidene)cyclohexane-1,3-diol]
- Mean (number of MBP-positive cells/number of Hoechst33342-positive cells) (Test 6): 0.55
